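Compound exposure: 48 hours, 5 concentrations, 96-well plates. GI50 is the concentration that inhibits growth by half. TGI marks complete inhibition of growth.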
How the values were obtained:
Test in all cases: growth of human tumour cells (NCI), 48 h
[1] = tested on: CAKI-1 renal
[2] = tested on: CCRF-CEM leukemia
[3] = tested on: HCC-2998 colon
[4] = tested on: HCT-116 colon
[5] = tested on: MALME-3M melanoma
[6] = tested on: MDA-MB-435
[7] = tested on: MOLT-4 leukemia
[8] = tested on: SK-MEL-28 melanoma
[9] = tested on: SW-620 colon
[10] = tested on: TK-10 renal

SMILES | TGI [1] [µM] | TGI [2] [µM] | TGI [3] [µM] | TGI [4] [µM] | TGI [5] [µM] | TGI [6] [µM] | TGI [7] [µM] | TGI [8] [µM] | TGI [9] [µM] | TGI [10] [µM] | GI50 [1] [µM] | GI50 [2] [µM] | GI50 [3] [µM] | GI50 [4] [µM] | GI50 [5] [µM] | GI50 [6] [µM] | GI50 [7] [µM] | GI50 [8] [µM] | GI50 [9] [µM] | GI50 [10] [µM]
O=C1C=CC(=O)C(CNc2ccc(C(=O)OC34CC5CC(CC(C5)C3)C4)cc2)=C1 | 2.71 | > 20.4 | 32.4 | 22.5 | 21.4 | 23 | 8.34 | 17.8 | 27.4 | 23.8 | – | – | – | – | – | – | – | – | – | –
COC(=O)[C@H]1[C@@H](C(C)C)O[C@@H](C(C)C)O[C@H]1C(F)(F)F | > 100 | > 100 | > 100 | > 100 | > 100 | > 100 | > 100 | > 100 | > 100 | > 100 | – | – | – | – | – | – | – | – | – | –
N=C1N(S(=O)(=O)c2ccccc2)[C@@H](Cc2ccccc2)[C@H](c2ccccc2)C1(c1ccccc1)c1ccccc1 | > 100 | > 100 | > 100 | > 100 | > 100 | > 100 | > 100 | > 100 | > 100 | > 100 | – | – | – | – | – | – | – | – | – | –
Cc1cc(/C=C\c2ccc3ccccc3[n+]2C)c(O)c2ncccc12 | 3.51 | > 100 | 0.593 | 1.41 | 5.16 | 0.523 | > 100 | 4.39 | 2.15 | 6.54 | 0.816 | 0.331 | 0.112 | 0.116 | 1.17 | 0.0875 | 0.4 | 0.517 | 0.196 | 0.814

Reference: PubChem BioAssay (NCI)
